# Patent publication US9121806B1, “Impedance spectroscopy-based cellular analysis device” (University of South Florida, priority 2007, dated 2015)
# Test system: OvCa429 cells
# Assay: Effect of trypsin on confluent OvCa429 cell culture monitored by impedance phase angle mapping
# Assay type: cell-based
# Settings: 20 μl of trypsin added to culture medium after 5 h of monitoring, approximately 80% confluence, monitored over 18 h
# Protocol: Ovarian cancer line OvCa429 were grown in M199 and MCDB 105 (1:1) (Sigma, St Louis, Mo.) supplemented with 10% fetal calf serum (Sigma), 2 mM L-glutamine, 100 units ml-1 penicillin and 100 μgml-1 streptomycin under 5% CO2, and 37 .C high-humidity atmosphere. The cell culture medium was changed every 2-3 days, depending on the rate of cell growth. Cells were sub-cultured using 1× trypsin solution directly on the multielectrode device Impedance data were taken at room temperature of about 22° C. After each recording the cells were placed back in to the incubator. The cell culture medium was not changed throughout the course of the experiment. Impedance measurements were recorded on two separate devices (control and variable) beginning at approximately 80% confluence of the OvCa culture. After 5 h of recording measurements at an interval of approximately 1 h, 20 μl of trypsin was added to the cell culture medium of variable. Trypsin was not added to the control. The impedance was recorded under room conditions and the devices were placed back in the incubator after each measurement frame.
# In order to affirm the utility of impedance mapping for tracking physiological changes, the effect of trypsin on the confluent cell culture was analyzed. […] FIG. 6 is the phase angle mapping of control and trypsinized cultures monitored over a period of 18 h.
substance,measurement,value
trypsin,effect of trypsin on the confluent cell culture (phase angle shape / cell detachment),detached the cells from the substrate
